Experimental data taken from US7906656B2, “Iodopyrazolyl carboxanilides” (Bayer CropScience AG, priority 2003, dated 2011).

Tested on: not listed separately
Test: log P determination by HPLC on reversed-phase column (EEC directive 79/831 Annex V.A8)
Format: physicochemical
Settings: pH 2.3; HPLC reversed-phase C18, 43° C.
Description: The given log P values were determined in accordance with EEC directive 79/831 Annex V.A8 by HPLC (High Performance Liquid Chromatography) on a reversed-phase column (C18). Temperature: 43° C. Mobile phases for the determination in the acidic range (pH 2.3): 0.1% aqueous phosphoric acid, acetonitrile; linear gradient from 10% acetonitrile to 90% acetonitrile. Calibration was carried out using unbranched alkan-2-ones (having 3 to 16 carbon atoms) with known log P values (determination of the log P values by the retention times using linear interpolation between two successive alkanones).

Row | logP | Compound
1 | 3.23 | Cn1cc(C(=O)Nc2ccccc2-c2ccc(C(F)(F)F)c(F)c2)c(I)n1 [Compound 11]
2 | 3.34 | Cn1cc(C(=O)Nc2ccccc2CCC(C)(C)C)c(I)n1 [Compound 18]
3 | 4.00 | CCCON=Cc1ccc(-c2ccccc2NC(=O)c2cn(C)nc2I)cc1F [Compound 5]
4 | 3.34 | Cn1cc(C(=O)Nc2ccccc2-c2cccc(Cl)c2Cl)c(I)n1 [Compound 28]
5 | 3.55 | Cn1cc(C(=O)Nc2ccccc2-c2ccc(C(F)(F)F)cc2Cl)c(I)n1 [Compound 30]
6 | 3.38 | Cn1cc(C(=O)Nc2ccccc2-c2ccc(Cl)c(Cl)c2)c(I)n1 [Compound 2]
7 | 3.15 | CC(C)CCc1ccccc1NC(=O)c1cn(C)nc1I [Compound 24]
8 | 3.45 | Cn1cc(C(=O)Nc2ccccc2-c2ccc(Br)c(Cl)c2)c(I)n1 [Compound 31]
9 | 3.40 | CC(C)=C(C)c1ccccc1NC(=O)c1cn(C)nc1I [Compound 27]
10 | 3.70 | CON=C(c1ccc(-c2ccccc2NC(=O)c2cn(C)nc2I)cc1)C(F)(F)F [Compound 23]
11 | 2.99 | Cn1cc(C(=O)Nc2ccccc2-c2cccc(Cl)c2F)c(I)n1 [Compound 17]
12 | 3.68 | CC(=O)N(C(=O)c1cn(C)nc1I)c1ccccc1C(C)CC(C)C (stereo not drawn) [Compound 21]
13 | 3.36 | Cn1cc(C(=O)Nc2ccccc2-c2ccc(I)cc2)c(I)n1 [Compound 16]
14 | 3.09 | Cn1cc(C(=O)Nc2ccccc2-c2ccc(Cl)c(F)c2)c(I)n1 [Compound 3]
15 | 3.28 | C=C(c1ccccc1NC(=O)c1cn(C)nc1I)C(C)C [Compound 25]
16 | 3.79 | Cn1cc(C(=O)Nc2ccccc2C#CC(C)(C)C)c(I)n1 [Compound 22]
17 | 3.18 | Cc1ccc(-c2ccccc2NC(=O)c2cn(C)nc2I)cc1F [Compound 7]
18 | 3.56 | Cn1cc(C(=O)Nc2ccccc2-c2ccc(Br)cc2Cl)c(I)n1 [Compound 32]
19 | 3.24 | Cn1cc(C(=O)Nc2ccccc2-c2ccc(C(F)(F)F)cc2)c(I)n1 [Compound 10]
20 | 2.54 | C=C(C)CC(C)(O)c1ccccc1NC(=O)c1cn(C)nc1I (stereo not drawn) [Compound 13]
21 | 3.08 | CC(CC1CC1)c1ccccc1NC(=O)c1cn(C)nc1I (stereo not drawn) [Compound 15]
22 | 3.27 | CC1CC(C)(C)c2cccc(NC(=O)c3cn(C)nc3I)c21 (stereo not drawn) [Compound 19]
23 | 3.36 | CC(C)CC(C)c1ccccc1NC(=O)c1cn(C)nc1I (stereo not drawn) [Compound 4]
24 | 3.82 | C=C(CC(C)(C)C)c1ccccc1NC(=O)c1cn(C)nc1I [Compound 26]
25 | 3.08 | Cn1cc(C(=O)Nc2ccccc2-c2ccc(Cl)cc2)c(I)n1 [Compound 14]
26 | 3.09 | Cn1cc(C(=O)Nc2ccccc2-c2ccc(F)c(Cl)c2)c(I)n1 [Compound 8]
27 | 3.62 | CC(=CC(C)C)c1ccccc1NC(=O)c1cn(C)nc1I [Compound 12]
28 | 3.20 | Cn1cc(C(=O)Nc2ccccc2-c2ccc(Br)cc2)c(I)n1 [Compound 9]
29 | 3.64 | CC(CC(C)(C)C)c1ccccc1NC(=O)c1cn(C)nc1I (stereo not drawn) [Compound 1]

Row | Compound | logP
30 | CC(C)CC(C)c1cc(F)ccc1NC(=O)c1cn(C)nc1I (stereo not drawn) [Compound 20] | 3.39

Same assay, conditions: reversed-phase C18 HPLC column; pH 2.3; HPLC reversed-phase C18, 43° C.

Row | chromatographic logP | Compound
31 | 0.72 | CCOC(=O)c1cn(C)nc1N [ethyl 3-amino-1-methyl-1H-pyrazole-4-carboxylate]
32 | 2.31 | CCOC(=O)/C(C#N)=C\N(C)/N=C/c1ccccc1 [ethyl 3-(N′-benzylidene-N-methylhydrazino)-2-cyanoacrylate]
33 | 1.74 | CCOC(=O)c1cn(C)nc1I [ethyl 3-iodo-1-methyl-1H-pyrazole-4-carboxylate]
34 | 0.57 | Cn1cc(C(=O)O)c(I)n1 [3-iodo-1-methyl-1H-pyrazole-4-carboxylic acid]
35 | 3.42 | Cn1cc(C(=O)Nc2ccc(F)cc2-c2ccc(Cl)c(Cl)c2)c(I)n1 [Compound 6, N-(3′,4′-dichloro-5-fluoro-1,1′-biphenyl-2-yl)-3-iodo-1-methyl-1H-pyrazole-4-carboxamide]

Tested on: Podosphaera leucotricha
Test: Podosphaera test (apple)/protective
Format: in vivo
Settings: 240 h, protective, application rate 100 g/ha, evaluation 10 days after inoculation, read-out: Efficacy in %
Description: (§1) To produce a suitable preparation of active compound, 1 part by weight of active compound is mixed with the stated amounts of solvents and emulsifier, and the concentrate is diluted with water to the desired concentration. To test for protective activity, young plants are sprayed with the preparation of active compound at the stated application rate. After the spray coating has dried on, the plants are inoculated with an aqueous spore suspension of the apple mildew pathogen Podosphaera leucotricha. The plants are then placed in a greenhouse at about 23° C. and a relative atmospheric humidity of about 70%. Evaluation is carried out 10 days after the inoculation. 0% means an efficacy which corresponds to that of the control, whereas an efficacy of 100% means that no infection is observed.

Row | Compound | pest or weed control at 100 g/ha [%]
36 | Cn1cc(C(=O)Nc2ccccc2-c2ccc(Cl)c(Cl)c2)c(I)n1 [drawing 55] | 99
37 | Cn1cc(C(=O)Nc2ccccc2-c2ccc(Cl)c(F)c2)c(I)n1 [drawing 59] | 100
38 | Cn1cc(C(=O)Nc2ccccc2-c2ccc(Br)cc2)c(I)n1 [drawing 58] | 100
39 | CC1CC(C)(C)c2cccc(NC(=O)c3cn(C)nc3I)c21 (stereo not drawn) [drawing 67] | 100
40 | CC(C)CCc1ccccc1NC(=O)c1cn(C)nc1I [drawing 66] | 98
41 | CC(CC(C)(C)C)c1ccccc1NC(=O)c1cn(C)nc1I (stereo not drawn) [drawing 53] | 100
42 | Cn1cc(C(=O)Nc2ccccc2-c2ccc(Cl)cc2)c(I)n1 [drawing 64] | 100
43 | Cn1cc(C(=O)Nc2ccc(F)cc2-c2ccc(Cl)c(Cl)c2)c(I)n1 [drawing 56] | 100
44 | Cc1ccc(-c2ccccc2NC(=O)c2cn(C)nc2I)cc1F [drawing 61] | 100
45 | CC(C)CC(C)c1cc(F)ccc1NC(=O)c1cn(C)nc1I (stereo not drawn) [drawing 68] | 100
46 | Cn1cc(C(=O)Nc2ccccc2-c2ccc(C(F)(F)F)cc2)c(I)n1 [drawing 62] | 88
47 | CCCO/N=C/c1ccc(-c2ccccc2NC(=O)c2cn(C)nc2I)cc1F [drawing 60] | 100
48 | Cn1cc(C(=O)Nc2ccccc2-c2ccc(I)cc2)c(I)n1 [drawing 65] | 100
49 | Cn1cc(C(=O)Nc2ccccc2-c2ccc(F)c(Cl)c2)c(I)n1 [drawing 57] | 100
50 | CC(C)CC(C)c1ccccc1NC(=O)c1cn(C)nc1I (stereo not drawn) [drawing 54] | 100
51 | Cn1cc(C(=O)Nc2ccccc2-c2ccc(C(F)(F)F)c(F)c2)c(I)n1 [drawing 63] | 99

Tested on: Venturia inaequalis
Test: Venturia test (apple)/protective
Format: in vivo
Settings: 240 h, protective, application rate 100 g/ha, evaluation 10 days after inoculation, read-out: Efficacy in %
Description: as §1, with “conidia” for “spore”, “apple” for “apple mildew”, “Venturia inaequalis and then remain in an incubation cabin at about 20° C. and 100% relative atmospheric humidity for 1 day.” for “Podosphaera leucotricha.”, “21°” for “23°”, “90%.” for “70%.”

Row | Compound | pest or weed control at 100 g/ha [%]
52 | CC(C)CC(C)c1ccccc1NC(=O)c1cn(C)nc1I (stereo not drawn) [drawing 70] | 100
53 | Cn1cc(C(=O)Nc2ccccc2-c2ccc(Cl)cc2)c(I)n1 [drawing 80] | 100
54 | CC(C)CCc1ccccc1NC(=O)c1cn(C)nc1I [drawing 82] | 98
55 | Cn1cc(C(=O)Nc2ccccc2-c2ccc(C(F)(F)F)c(F)c2)c(I)n1 [drawing 79] | 98
56 | CCCO/N=C/c1ccc(-c2ccccc2NC(=O)c2cn(C)nc2I)cc1F [drawing 76] | 100
57 | CC(CC(C)(C)C)c1ccccc1NC(=O)c1cn(C)nc1I (stereo not drawn) [drawing 69] | 100
58 | Cn1cc(C(=O)Nc2ccccc2-c2ccc(Br)cc2)c(I)n1 [drawing 74] | 100
59 | Cn1cc(C(=O)Nc2ccccc2-c2ccc(Cl)c(Cl)c2)c(I)n1 [drawing 71] | 99
60 | CC1CC(C)(C)c2cccc(NC(=O)c3cn(C)nc3I)c21 (stereo not drawn) [drawing 83] | 100
61 | Cn1cc(C(=O)Nc2ccccc2-c2ccc(C(F)(F)F)cc2)c(I)n1 [drawing 78] | 94
62 | Cn1cc(C(=O)Nc2ccc(F)cc2-c2ccc(Cl)c(Cl)c2)c(I)n1 [drawing 72] | 100
63 | Cc1ccc(-c2ccccc2NC(=O)c2cn(C)nc2I)cc1F [drawing 77] | 97
